Experimental data taken from ChEMBL document CHEMBL4665751, “Discovery of Clinical Candidate (5-(3-(4-Chlorophenoxy)prop-1-yn-1-yl)-3-hydroxypicolinoyl)glycine, an Orally Bioavailable Prolyl Hydroxylase Inhibitor for the Treatment of Anemia” (J Med Chem, 2020).
pIC50: −log10 of the molar value.

How the values were obtained:
Mus musculus = test: Induction of erythropoiesis in po dosed C57BL/6 mouse assessed as increase in red blood cell count administered thrice for 3 days measured 4 hrs post last dose; format: functional, organism-based; details: dose mg/kg 5-50, time 72.0 hrs
[1] = Nephrotoxicity in Sprague-Dawley rat assessed as change in urea level in blood at 15 to 200 mg/kg, po administered every alternate days for 2 weeks measured on day 14; format: toxicity, organism-based; details: in vivo, 336 h, dose 15-200 mg/kg, time 14 day
[2] = Acute toxicity in male Sprague-Dawley rat assessed as change in ratio of testis to body weight at 15 to 200 mg/kg, po administered every alternate days for 2 weeks measured on day 14; format: organism-based; details: in vivo, 336 h, dose 15-200 mg/kg, time 14 day
[3] = In vivo inhibition of PHD2 in C57BL/6 mouse assessed as increase in EPO plasma level by measuring EPO level at 15 mg/kg, iv measured after 4 hrs by ELISA; format: functional
[4] = Acute toxicity in Sprague-Dawley rat assessed as change in growth at 15 to 200 mg/kg, po administered every alternate days for 14 days; format: organism-based; details: in vivo, 336 h, dose 15-200 mg/kg, time 14 day
Egl nine homolog 1 [5] = biological target: T1, Egl nine homolog 1 (Homo sapiens, UniProt Q9GZT9); test: Inhibition of PHD2 in human Hep3B cells assessed as upregulation of EPO mRNA expression measured after 10 hrs by Trizol reagent based qRT-PCR analysis; format: cell-based; details: dose microM 5-50, time 10.0 hrs
[6] = Nephrotoxicity in male Sprague-Dawley rat assessed as effect on total protein level in blood at 15 to 200 mg/kg, iv or po administered every alternate days for 2 weeks measured on day 14; format: toxicity, organism-based; details: in vivo, 336 h, dose 15-200 mg/kg, time 14 day
[7] = Clearance in Beagle dog at 0.5 mg/kg, iv by LC-MS/MS analysis; format: ADME, organism-based, Canis lupus familiaris; details: in vivo
[8] = Half-life in Sprague-Dawley rat at 2 mg/kg, ig by LC-MS/MS analysis; format: ADME, organism-based; details: in vivo, po
Egl nine homolog 1 [9] = biological target: T1, Egl nine homolog 1; test: Inhibition of PHD2 in human Hep3B cells assessed as upregulation of EPO mRNA expression at 50 uM measured after 10 hrs by Trizol reagent based qRT-PCR analysis relative to control; format: cell-based
[10] = Half-life in human liver microsome at 1 uM preincubated for 5 mins followed by NADPH addition measured up to 120 mins by LC-MS/MS analysis; format: ADME; details: liver microsomes, time <=125 min
Cytochrome P450 2D6 = Cytochrome P450 2D6 (Homo sapiens, UniProt P10635); test: Inhibition of CYP2D6 (unknown origin) using dextromethorphan as substrate preincubated for 5 mins followed by addition of NADPH measured after 20 mins by LC-MS/MS analysis; format: ADME
Cytochrome P450 1A2 = biological target: T2, Cytochrome P450 1A2 (Homo sapiens, UniProt P05177); test: Inhibition of CYP1A2 (unknown origin) using phenacetin as substrate preincubated for 5 mins followed by addition of NADPH measured after 20 mins by LC-MS/MS analysis; format: ADME
T2 sequence (P05177 whole entry): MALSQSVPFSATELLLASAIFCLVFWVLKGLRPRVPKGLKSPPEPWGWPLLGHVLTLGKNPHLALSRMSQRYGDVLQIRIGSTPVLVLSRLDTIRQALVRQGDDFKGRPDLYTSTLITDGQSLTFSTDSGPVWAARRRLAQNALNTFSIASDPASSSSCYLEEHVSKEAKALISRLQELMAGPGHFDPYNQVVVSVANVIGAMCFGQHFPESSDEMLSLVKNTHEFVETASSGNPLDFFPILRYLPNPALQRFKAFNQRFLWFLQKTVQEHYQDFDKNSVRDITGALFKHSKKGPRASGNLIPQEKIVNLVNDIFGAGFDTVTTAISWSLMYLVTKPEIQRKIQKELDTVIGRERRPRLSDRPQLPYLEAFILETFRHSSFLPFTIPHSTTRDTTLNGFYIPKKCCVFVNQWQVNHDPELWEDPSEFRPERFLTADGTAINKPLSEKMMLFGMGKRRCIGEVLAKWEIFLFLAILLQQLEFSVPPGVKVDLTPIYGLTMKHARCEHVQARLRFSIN

[11] = Apparent volume of distribution in Sprague-Dawley rat at 2 mg/kg, ig by LC-MS/MS analysis; format: ADME, organism-based; details: in vivo, po
[12] = Cmax in Sprague-Dawley rat at 2 mg/kg, ig by LC-MS/MS analysis; format: ADME, organism-based; design: route […], dose 2 mg/kg; details: in vivo, po
Homo sapiens [13] = organism: Homo sapiens; test: Selectivity index, ratio of IC50 for KDM6B (unknown origin) in presence of peptide substrate incubated for 30 mins by alpha screen assay to IC50 for PHD2 (unknown origin) by O-phenyl enediamine(OPD) based fluorescence assay
[14] = AUC (0 to t) in Beagle dog at 2 mg/kg, ig by LC-MS/MS analysis; format: ADME, organism-based, Canis lupus familiaris; design: dose 2 mg/kg; details: in vivo, po
[15] = MRT (0 to infinity) in Beagle dog at 2 mg/kg, ig by LC-MS/MS analysis; format: ADME, organism-based, Canis lupus familiaris; details: in vivo, po
Homo sapiens [16] = organism: Homo sapiens; test: Selectivity index, ratio of IC50 for human ERG expressed in HEK293 cells by PatchLiner assay to IC50 for PHD2 (unknown origin) by O-phenyl enediamine(OPD) based fluorescence assay; format: cell-based
Homo sapiens [17] = organism: Homo sapiens; test: Selectivity index, ratio of IC50 for PHD3 (unknown origin) to IC50 for PHD2 (unknown origin) by O-phenyl enediamine(OPD) based fluorescence assay
[18] = AUC (0 to t) in Sprague-Dawley rat at 1 mg/kg, iv by LC-MS/MS analysis; format: ADME, organism-based; design: dose 1 mg/kg; details: in vivo
[19] = Half-life in human L02 cells at 100 uM incubated up to 120 mins by LC-MS/MS analysis; format: ADME, cell-based

T1 sequence (Q9GZT9 2-426 limits assumed): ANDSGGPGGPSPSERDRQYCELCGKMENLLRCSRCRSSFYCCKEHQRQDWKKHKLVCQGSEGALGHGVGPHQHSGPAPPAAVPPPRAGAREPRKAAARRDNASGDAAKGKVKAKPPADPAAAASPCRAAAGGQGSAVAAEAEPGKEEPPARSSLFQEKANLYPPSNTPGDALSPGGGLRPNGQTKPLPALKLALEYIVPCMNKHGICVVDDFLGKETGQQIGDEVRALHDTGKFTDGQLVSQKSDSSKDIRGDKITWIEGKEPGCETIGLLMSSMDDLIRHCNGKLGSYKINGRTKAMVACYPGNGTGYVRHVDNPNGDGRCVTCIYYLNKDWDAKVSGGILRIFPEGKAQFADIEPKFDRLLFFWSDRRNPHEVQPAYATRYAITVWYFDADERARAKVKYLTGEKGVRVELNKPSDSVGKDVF
Sequence of Cytochrome P450 2D6 (P10635 whole entry): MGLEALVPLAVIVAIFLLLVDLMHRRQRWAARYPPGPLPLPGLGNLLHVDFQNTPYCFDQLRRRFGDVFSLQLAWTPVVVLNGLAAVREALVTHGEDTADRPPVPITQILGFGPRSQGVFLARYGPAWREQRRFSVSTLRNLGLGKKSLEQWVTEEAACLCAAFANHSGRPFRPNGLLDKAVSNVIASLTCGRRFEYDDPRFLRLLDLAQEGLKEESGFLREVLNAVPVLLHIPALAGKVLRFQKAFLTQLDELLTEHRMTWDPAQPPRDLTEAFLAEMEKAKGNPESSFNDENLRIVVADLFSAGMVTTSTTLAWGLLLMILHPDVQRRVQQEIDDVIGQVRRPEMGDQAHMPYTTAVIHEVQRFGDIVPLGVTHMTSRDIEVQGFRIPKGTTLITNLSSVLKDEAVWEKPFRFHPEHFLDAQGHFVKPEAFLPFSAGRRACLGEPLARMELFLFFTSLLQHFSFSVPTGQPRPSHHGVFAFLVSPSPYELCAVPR

O=C(O)CNC(=O)c1ncc(C#CCOc2ccc(Cl)cc2)cc1O [DDO-3055]
Activity (Mus musculus): Dose-dependent effect | Activity [1]: Non-Toxic | Activity [2]: Non-Toxic | Activity [3]: >1000 pg/mL | Activity [4]: Non-Toxic | inhibition (Egl nine homolog 1 [5]): Dose-dependent effect | Activity [6]: Non-Toxic | clearance [7]: 13.2 mL/min/kg | half-life [8]: 6.44 h | fold change (FC) (Egl nine homolog 1 [9]): 7 | half-life at 1 µM [10]: > 2.32 h | pIC50 (Cytochrome P450 2D6): < 4.52 | pIC50 (Cytochrome P450 1A2): < 4.52 | Vz [11]: 3.409 L/kg | Cmax [12]: 1030 ng/mL | Ratio IC50 (Homo sapiens [13]): > 156 | AUC(0-t) [14]: 1360 ng·h/mL | MRT inf [15]: 4.69 h | Ratio IC50 (Homo sapiens [16]): > 467 | Ratio IC50 (Homo sapiens [17]): 2.6 | AUC(0-t) [18]: 4710 ng·h/mL | half-life at 100 µM [19]: 17.7 h
